From ChEMBL document CHEMBL2029229, “Structure-activity relationship of a series of non peptidic RGD integrin antagonists targeting α5β1: part 1” (Bioorg Med Chem Lett, 2012)

Experiments:
Integrin alpha-5/beta-1 [1] = target: T1, Integrin alpha-5/beta-1 (Homo sapiens, UniProt P05556+P08648); test: Binding affinity to integrin alpha5beta1; type: protein-complex assay
[2] = Dissociation constant, pKa of the compound; type: physicochemical
Integrin alpha-5/beta-1 [3] = target: T1, Integrin alpha-5/beta-1; test: Antagonist activity at integrin alpha5beta1 in human K562 cells assessed as inhibition of cell adhesion; type: functional, cell-based
Integrin alpha-V/beta-3 = Integrin alpha-V/beta-3 (Homo sapiens, UniProt P05106+P06756); test: Antagonist activity at integrin alphavbeta3 in human A375M cells assessed as inhibition of cell adhesion to fibrinogen in presence of Mg2+; type: functional, cell-based
Chain of Integrin alpha-V/beta-3 (P05106 27-788 limits assumed): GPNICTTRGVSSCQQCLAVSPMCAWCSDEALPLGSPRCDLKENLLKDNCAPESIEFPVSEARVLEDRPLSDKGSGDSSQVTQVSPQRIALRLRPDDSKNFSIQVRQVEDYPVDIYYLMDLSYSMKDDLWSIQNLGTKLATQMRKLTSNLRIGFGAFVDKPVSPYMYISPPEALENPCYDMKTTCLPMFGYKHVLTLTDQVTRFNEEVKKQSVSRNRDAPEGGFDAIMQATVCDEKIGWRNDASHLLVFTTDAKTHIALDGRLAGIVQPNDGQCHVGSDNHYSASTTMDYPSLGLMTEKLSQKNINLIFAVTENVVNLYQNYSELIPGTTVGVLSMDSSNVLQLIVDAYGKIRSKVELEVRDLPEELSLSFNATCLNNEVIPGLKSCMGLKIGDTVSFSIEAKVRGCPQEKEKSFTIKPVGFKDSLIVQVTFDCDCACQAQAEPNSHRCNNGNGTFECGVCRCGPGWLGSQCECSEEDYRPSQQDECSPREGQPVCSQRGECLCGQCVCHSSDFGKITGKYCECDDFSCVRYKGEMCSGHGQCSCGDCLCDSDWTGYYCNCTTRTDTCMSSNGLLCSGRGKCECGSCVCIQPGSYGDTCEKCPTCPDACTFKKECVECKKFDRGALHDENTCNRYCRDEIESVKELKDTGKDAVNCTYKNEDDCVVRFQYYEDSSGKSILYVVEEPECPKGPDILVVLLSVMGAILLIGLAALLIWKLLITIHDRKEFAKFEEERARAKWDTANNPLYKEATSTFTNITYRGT
Chain of Integrin alpha-V/beta-3 (P06756 31-889 limits assumed): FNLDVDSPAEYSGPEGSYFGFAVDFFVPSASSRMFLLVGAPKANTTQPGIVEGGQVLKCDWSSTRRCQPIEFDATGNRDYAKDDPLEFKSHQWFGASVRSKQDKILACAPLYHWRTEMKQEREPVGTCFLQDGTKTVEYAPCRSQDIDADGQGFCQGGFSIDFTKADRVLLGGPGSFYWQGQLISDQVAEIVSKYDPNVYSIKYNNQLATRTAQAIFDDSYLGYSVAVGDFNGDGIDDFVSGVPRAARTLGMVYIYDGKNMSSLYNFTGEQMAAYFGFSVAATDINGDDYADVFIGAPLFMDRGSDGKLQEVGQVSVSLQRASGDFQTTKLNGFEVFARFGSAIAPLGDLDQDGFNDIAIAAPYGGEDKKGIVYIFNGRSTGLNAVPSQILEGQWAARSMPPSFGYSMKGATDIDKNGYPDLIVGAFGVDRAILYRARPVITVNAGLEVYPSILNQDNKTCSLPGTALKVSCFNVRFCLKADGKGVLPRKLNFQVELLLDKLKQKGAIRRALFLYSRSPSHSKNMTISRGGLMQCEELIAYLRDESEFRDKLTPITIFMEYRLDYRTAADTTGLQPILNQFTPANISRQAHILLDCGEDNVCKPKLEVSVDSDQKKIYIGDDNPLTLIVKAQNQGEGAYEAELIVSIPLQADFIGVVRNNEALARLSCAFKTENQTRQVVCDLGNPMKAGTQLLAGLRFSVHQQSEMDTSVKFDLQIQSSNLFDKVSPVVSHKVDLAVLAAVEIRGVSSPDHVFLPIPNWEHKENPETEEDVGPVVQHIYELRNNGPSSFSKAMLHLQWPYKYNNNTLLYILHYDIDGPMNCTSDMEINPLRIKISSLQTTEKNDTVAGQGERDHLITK
Chain of Integrin alpha-V/beta-3 (P06756 891-1048 limits assumed): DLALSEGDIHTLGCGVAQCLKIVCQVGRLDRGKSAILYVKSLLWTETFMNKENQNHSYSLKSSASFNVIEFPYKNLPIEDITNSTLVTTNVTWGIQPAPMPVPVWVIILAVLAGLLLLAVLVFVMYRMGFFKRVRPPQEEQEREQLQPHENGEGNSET

Integrin alpha-5/beta-1 [4] = target: T1, Integrin alpha-5/beta-1; test: Antagonist activity at integrin alpha5beta1 in human A375M cells assessed as inhibition of cell adhesion to fibronectin in presence of Mg2+ and MK-0429; type: functional, cell-based
A375M = test: Selectivity ratio of IC50 for integrin alphavbeta3alpha5beta1-mediated human A375M cells adhesion to fibronectin in absence of MK-0429 to IC50 for integrin alpha5beta1-mediated human A375M cells adhesion to fibronectin in presence of MK-0429; type: cell-based
[5] = target: Fibronectin receptor (Integrin alpha-5/beta-1 and alpha-V/beta-3) (Homo sapiens, UniProt P05106+P05556+P06756+P08648); test: Antagonist activity at integrin alphavbeta3alpha5beta1 in human A375M cells assessed as inhibition of cell adhesion to fibronectin in presence of Mg2+; type: functional, cell-based
[6] = Fraction unbound in rat plasma; type: ADME, cell-free
Integrin alpha-5/beta-1 [7] = target: T1, Integrin alpha-5/beta-1; test: Antagonist activity at integrin alpha5beta1 in human K562 cells assessed as inhibition of cell adhesion in presence of 630 uM human serum albumin; type: functional, cell-based
[8] = target: Integrin alpha-IIb/beta-3 (Homo sapiens, UniProt P05106+P08514); test: Inhibition of integrin alpha2b beta3; type: protein-complex assay
Chain of Integrin alpha-IIb/beta-3 (P05106 27-788 limits assumed): as the sequence (P05106 27-788 limits assumed) above
Chain of Integrin alpha-IIb/beta-3 (P08514 32-887 limits assumed): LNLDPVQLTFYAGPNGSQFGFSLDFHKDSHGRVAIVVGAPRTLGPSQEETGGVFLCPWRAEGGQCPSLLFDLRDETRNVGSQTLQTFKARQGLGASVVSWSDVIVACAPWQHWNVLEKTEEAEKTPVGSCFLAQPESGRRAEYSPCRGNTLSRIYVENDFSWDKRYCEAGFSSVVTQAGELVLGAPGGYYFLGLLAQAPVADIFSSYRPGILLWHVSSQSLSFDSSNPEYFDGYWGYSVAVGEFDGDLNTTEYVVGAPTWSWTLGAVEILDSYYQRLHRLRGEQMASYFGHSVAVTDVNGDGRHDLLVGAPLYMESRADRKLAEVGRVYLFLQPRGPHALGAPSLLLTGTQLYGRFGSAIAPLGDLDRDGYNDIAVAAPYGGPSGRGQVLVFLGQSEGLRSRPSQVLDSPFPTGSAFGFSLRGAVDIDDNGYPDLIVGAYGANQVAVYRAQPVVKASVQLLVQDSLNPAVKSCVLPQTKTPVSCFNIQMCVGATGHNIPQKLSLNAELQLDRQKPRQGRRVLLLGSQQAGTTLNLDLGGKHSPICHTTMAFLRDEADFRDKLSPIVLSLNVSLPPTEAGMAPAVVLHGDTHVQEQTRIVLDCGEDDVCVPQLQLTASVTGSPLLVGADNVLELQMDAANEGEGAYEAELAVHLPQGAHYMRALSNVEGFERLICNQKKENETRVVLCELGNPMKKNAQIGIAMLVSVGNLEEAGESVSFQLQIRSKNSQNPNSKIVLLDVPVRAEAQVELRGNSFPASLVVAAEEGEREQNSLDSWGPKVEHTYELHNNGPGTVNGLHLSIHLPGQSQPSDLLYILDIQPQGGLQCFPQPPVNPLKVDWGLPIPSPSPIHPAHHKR
Chain of Integrin alpha-IIb/beta-3 (P08514 891-1039 limits assumed): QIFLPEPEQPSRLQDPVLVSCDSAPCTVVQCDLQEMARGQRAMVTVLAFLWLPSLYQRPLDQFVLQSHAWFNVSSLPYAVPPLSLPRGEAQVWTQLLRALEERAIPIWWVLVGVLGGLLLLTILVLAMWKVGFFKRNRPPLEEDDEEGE

T1 sequence (P05556 21-798 limits assumed): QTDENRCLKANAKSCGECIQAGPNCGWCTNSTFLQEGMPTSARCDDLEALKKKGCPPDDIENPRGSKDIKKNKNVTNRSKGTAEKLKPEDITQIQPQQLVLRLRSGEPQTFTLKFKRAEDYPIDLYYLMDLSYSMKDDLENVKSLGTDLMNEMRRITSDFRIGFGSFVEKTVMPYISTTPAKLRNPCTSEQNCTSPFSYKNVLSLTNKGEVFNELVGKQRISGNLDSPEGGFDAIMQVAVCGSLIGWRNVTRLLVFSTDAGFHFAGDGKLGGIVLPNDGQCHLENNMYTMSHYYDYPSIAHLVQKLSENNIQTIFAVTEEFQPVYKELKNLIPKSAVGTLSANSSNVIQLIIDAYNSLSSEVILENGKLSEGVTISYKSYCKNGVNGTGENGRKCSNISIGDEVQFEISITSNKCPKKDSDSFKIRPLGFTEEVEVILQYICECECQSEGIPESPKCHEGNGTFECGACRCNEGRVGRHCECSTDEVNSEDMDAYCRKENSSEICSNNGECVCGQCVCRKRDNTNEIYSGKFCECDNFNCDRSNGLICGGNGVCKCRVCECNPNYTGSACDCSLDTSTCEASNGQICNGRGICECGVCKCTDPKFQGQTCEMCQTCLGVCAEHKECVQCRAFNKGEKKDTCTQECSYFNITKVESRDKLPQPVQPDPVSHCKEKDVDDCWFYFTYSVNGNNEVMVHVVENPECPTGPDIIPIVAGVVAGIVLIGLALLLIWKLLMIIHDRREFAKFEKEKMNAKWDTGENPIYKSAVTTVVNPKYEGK
T1 sequence (P08648 42-894 limits assumed): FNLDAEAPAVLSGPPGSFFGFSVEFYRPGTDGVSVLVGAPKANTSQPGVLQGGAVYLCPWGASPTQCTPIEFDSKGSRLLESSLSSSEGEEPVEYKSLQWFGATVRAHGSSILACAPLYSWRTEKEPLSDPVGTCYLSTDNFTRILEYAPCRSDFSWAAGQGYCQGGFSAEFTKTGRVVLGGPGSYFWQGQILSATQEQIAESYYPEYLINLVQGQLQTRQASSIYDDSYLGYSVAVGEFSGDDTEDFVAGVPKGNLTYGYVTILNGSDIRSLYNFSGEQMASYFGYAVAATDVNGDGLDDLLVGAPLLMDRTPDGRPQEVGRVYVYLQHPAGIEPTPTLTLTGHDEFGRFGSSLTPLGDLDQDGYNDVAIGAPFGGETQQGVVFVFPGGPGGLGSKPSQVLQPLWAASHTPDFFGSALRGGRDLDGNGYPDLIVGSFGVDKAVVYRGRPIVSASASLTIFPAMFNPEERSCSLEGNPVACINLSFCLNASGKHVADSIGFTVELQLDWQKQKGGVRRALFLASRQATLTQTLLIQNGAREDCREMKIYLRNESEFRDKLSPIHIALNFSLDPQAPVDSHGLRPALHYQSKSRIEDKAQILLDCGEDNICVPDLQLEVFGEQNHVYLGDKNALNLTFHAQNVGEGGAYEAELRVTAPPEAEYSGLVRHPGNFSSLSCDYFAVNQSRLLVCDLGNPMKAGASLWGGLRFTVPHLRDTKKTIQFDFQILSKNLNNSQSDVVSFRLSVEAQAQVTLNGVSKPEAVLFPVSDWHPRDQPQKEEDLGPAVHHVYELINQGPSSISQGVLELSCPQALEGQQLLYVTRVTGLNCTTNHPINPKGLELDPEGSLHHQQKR
T1 sequence (P08648 895-1049 limits assumed): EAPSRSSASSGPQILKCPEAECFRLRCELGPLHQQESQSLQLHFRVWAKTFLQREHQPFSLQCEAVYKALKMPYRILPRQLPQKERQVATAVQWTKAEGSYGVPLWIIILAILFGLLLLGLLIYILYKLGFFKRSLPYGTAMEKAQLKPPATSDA

SMILES	IC50 (Integrin alpha-5/beta-1 [1]) [nM]	pKa [2]	IC50 (Integrin alpha-5/beta-1 [3]) [nM]	IC50 (Integrin alpha-V/beta-3) [nM]	IC50 (Integrin alpha-5/beta-1 [4]) [nM]	IC50 [5] [nM]	fraction unbound [6]	IC50 (Integrin alpha-5/beta-1 [7]) [nM]	IC50 [8] [nM]	Ratio IC50 (A375M)
O=C(N[C@@H](Cc1ccc(CCCCNc2ccccn2)cc1)C(=O)O)c1c(Cl)cccc1Cl	24	7.2	1100							
O=C(Cc1ccc2c(n1)NCCC2)Nc1ccc(C[C@H](NC(=O)c2c(Cl)cccc2Cl)C(=O)O)cc1	3		84	49	210	860				4
O=C(N[C@@H](Cc1ccc(CCCc2ccc3c(n2)NCCC3)cc1)C(=O)O)c1c(Cl)cccc1Cl	< 1		< 8				0.006	450	> 10000	
NC(=O)NCCCOc1ccc(C[C@H](NC(=O)c2c(Cl)cccc2Cl)C(=O)O)cc1	150		10000							
O=C(N[C@@H](Cc1ccc(OCCCCNc2ccccn2)cc1)C(=O)O)c1c(Cl)cccc1Cl	54		710							
CN1CC(CCCOc2ccc(C[C@H](NC(=O)c3c(Cl)cccc3Cl)C(=O)O)cc2)C1	360		58000							
O=C(NCc1ccc2c(n1)NCCC2)c1ccc(C[C@H](NC(=O)c2c(Cl)cccc2Cl)C(=O)O)cc1	5	6.8	120	350	1400	8400				5.9
Cc1cc(C)c(C(=O)N[C@@H](CNC(=O)CO[C@@H]2C[C@@H](CNc3ccccn3)N(C(=O)OCc3ccccc3)C2)C(=O)O)c(C)c1			586	1200	200	3200				15
O=C(N[C@@H](Cc1ccc(OCCNc2nc3ccccc3s2)cc1)C(=O)O)c1c(Cl)cccc1Cl	970	4.3	2400							
O=C(N[C@@H](Cc1ccc(C#CCCNc2ccccn2)cc1)C(=O)O)c1c(Cl)cccc1Cl	69	6.7	2100							
O=C(N[C@@H](Cc1ccc(OCCNc2nc3ccccc3[nH]2)cc1)C(=O)O)c1c(Cl)cccc1Cl	8	7.2	160							

Now from value to compound, other results behind:

IC50 (Integrin alpha-5/beta-1 [1]) [nM]	pKa [2]	IC50 (Integrin alpha-5/beta-1 [3]) [nM]	IC50 (Integrin alpha-V/beta-3) [nM]	IC50 (Integrin alpha-5/beta-1 [4]) [nM]	IC50 [5] [nM]	fraction unbound [6]	IC50 (Integrin alpha-5/beta-1 [7]) [nM]	IC50 [8] [nM]	SMILES	Ratio IC50 (A375M)
83	6.8	320							O=C(N[C@@H](Cc1ccc(OCCc2cccc(NC3CCCC3)n2)cc1)C(=O)O)c1c(Cl)cccc1Cl	
1	7.1	< 8	23	150	250	0.015	< 56	> 10000	CN1CCNc2nc(CCOc3ccc(C[C@H](NC(=O)c4c(Cl)cccc4Cl)C(=O)O)cc3)ccc21	1.6
	6.7								O=C(N[C@@H](Cc1ccc(OCCNc2ccccn2)cc1)C(=O)O)c1c(Cl)cccc1Cl	
220	6.4	1400							CNc1cccc(COCc2ccc(C[C@H](NC(=O)c3c(Cl)cccc3Cl)C(=O)O)cc2)n1	
1	6	10	17	130	270				O=C(N[C@@H](Cc1ccc(OCCc2ccc3c(n2)NCCO3)cc1)C(=O)O)c1c(Cl)cccc1Cl	2.1
< 1	7.6	< 3	1		9	0.007	29	> 10000	O=C(N[C@@H](Cc1ccc(OCCc2ccc3c(n2)NCCC3)cc1)C(=O)O)c1c(Cl)cccc1Cl	4.5
	7		7						CNc1cccc(CCOc2ccc(C[C@H](NC(=O)c3c(Cl)cccc3Cl)C(=O)O)cc2)n1	2.4
< 1		9							Nc1cccc(CCOc2ccc(C[C@H](NC(=O)c3c(Cl)cccc3Cl)C(=O)O)cc2)n1	
	7.6								CNc1cccc(CCCc2ccc(C[C@H](NC(=O)c3c(Cl)cccc3Cl)C(=O)O)cc2)n1	
	7.1		84						O=C(N[C@@H](Cc1ccc(OCCCNc2ccccn2)cc1)C(=O)O)c1c(Cl)cccc1Cl	4
3		< 41							O=C(N[C@@H](Cc1ccc(OCCc2cccc(NCC3CC3)n2)cc1)C(=O)O)c1c(Cl)cccc1Cl	
140		2700							CN(C)c1cccc(CCOc2ccc(C[C@H](NC(=O)c3c(Cl)cccc3Cl)C(=O)O)cc2)n1	
